Data set [1] concerns PMA-induced psoriasis. The data set can be described thus: PMA-induced psoriasis in female BALB/c mice. The data set is classed as in vivo. Conditions: topical. The procedure:
Twenty-four (24) female BALB/c mice, aged 6 to 8 weeks with a body weight between 22 and 30 g were used. The mice were randomized into […]. The grouping of animals was as follows: Group I (Naïve; ethanol), Group II (PMA; ethanol), Group III (PMA; Compound 210 μM) and Group IV (PMA; betamethasone). Twenty (20)μL of PMA (4 μg/20 μL of acetone) was applied topically on the upper surface of pinna of ear of all animals in Group II to Group IV. PMA was applied daily on left ear and on alternate days (M-W-F) on right ear from Day 1 to Day 9. Thirty (30) minutes after application of PMA, vehicle or standard compound (betamethasone) or Compound 2 was applied topically to the ears of animals from different groups. […] Animals were observed daily for a period of 12 days for any treatment related symptoms. Basal ear thickness was recorded in all animals (before application of PMA) using digital screw gauge at time T0 (Day 1). […] Commercially available 100% DMSO (LR Grade) and ethanol (LR Grade) were used to prepare the formulations. PMA was prepared by dissolving 10 mg of PMA in 50.0 mL of acetone. Compound 2 was prepared by dissolving 1.47 mg of Compound 2 in 300 μL of 100% DMSO.

Data set [2] has as its system IMQ-induced psoriasis. The data set can be described thus: Imiquimod (IMQ)-induced dermal inflammation/psoriasis model (Study 1). The settings on record: Compound 2 1 μM. Format: in vivo, BALB/c mice. From the text: Forty (40) male BALB/c mice aged 6 to 8 weeks were used with a pretreatment body weight of 22 to 30 g. The BALB/c mice were randomized into four (4) groups of 10 mice per group. A small area (about 2×2 cm^2) of skin on the dorsum of all the animals was neatly shaved. Group-I animals served as Naïve animals. Psoriasis was induced in Groups II to IV [Group II (IMQ; vehicle), Group III (IMQ; […] Animals were observed daily for a period of 13 days for any treatment-related symptoms. The daily observations included body weight, feed intake, skin thickening, scaling, folding, erythema, nasal discharge, movement, respiration, hair, distended abdomen, skin condition, fur, mucous membrane, presence or absence of secretions, eye condition, tail elevation, motor activity, posture and gait. Severity of damage to the dorsal portion of the skin was assessed by assigning erythema, scaling, folding and skin thickening scores based on external observations of skin, according to rubric in Table 9. […] Compound 2 was prepared by dissolving 1.47 mg of Compound 2 in 300 μL of 100% DMSO.

Data set [3] relates to Nrf2 pathway. The experiment in a line: Nrf2 pathway induction in THP-1 cells with or without KEAP1 knockdown (quantitative PCR). Format: cell-based, human. From the text: THP-1 (human acute monocytic leukemia cells) cells were used to evaluate the effects of Compound 1 on the Nrf2 pathway in an inflammation environment. Nuclear factor (erythroid-derived 2)-like 2 (Nrf2) is an anti-inflammatory transcription factor. Under normal conditions, Nrf2 is kept in the cytoplasm by Kelch like-ECH associated protein 1 (KEAP1), which degrades Nrf2 by ubiquitination. Nrf2 can also move into the nucleus and back into the cytoplasm as a CRM1 cargo. In the current study, Nrf2 was protected from degradation by knocking down KEAP1 with siRNA. Then, KEAP1-depleted cells were treated with TNFα to induce inflammation, and the ability of Compound 1 to reverse inflammation by up-regulation of the Nrf2 pathway was tested.
THP-1 (acute monocytic leukemia) cells were plated in two 10 cm culture dishes (6*10^6 cells/dish) with RPMI-1640 medium (Lonza) supplemented with 10% heat-inactivated fetal bovine serum (Invitrogen) and 2-mercaptoethanol to a final concentration of 0.05 mM. Cells in one dish were transfected with 50 nM of KEAP1 siRNA (Life Technologies, Silencer Select, siRNA ID# s18982) using Lipofectamine RNAiMax (Invitrogen), whereas the cells in the other dish were transfected with 50 nM of control siRNA, Block-iT (Invitrogen). Transfected cells were left for 72 h and the KEAP1 knockdown efficiency was calculated with quantitative PCR using a probe against KEAP1.
Next, the cells from each of the dishes were divided equally into 4 wells in different 6-well plates. One of the wells from each of the plates was pre-treated with 1 μM of Compound 1 for 1 h, followed by 20 ng/mL TNFα for 24 h. The other wells were treated with either 1 μM Compound 1 or 20 ng/mL TNFα or neither for 24 h. Following the treatment, RNA was extracted from the cells using an RNA extraction kit (Qiagen). RNA samples from each treatment group were reverse transcribed and real-time PCR was performed on the corresponding cDNA sequences using probes against Nrf2 and two of its downstream genes, NQO1 and EPHX1. THP-1 cells were transfected with KEAP1 siRNA. 40% knockdown efficiency was achieved. […]

The test system of data set [4] is inflammation-related CRM1 cargo proteins: IκB, Nrf2, HMGB1, FoxP3, FOXO1a, RxRα, PPARγ and NFκB (p65 subunit). The data set can be described thus: Immunofluorescence of nuclear localization of inflammation-related CRM1 cargos in HeLa and THP-1 cells. The data set is classed as cell-based, human. The settings on record: 1-10 μM Compound 1 with 20 ng/mL TNFα, 4-24 h. The procedure: HeLa and THP-1 (human acute monocytic leukemia) cells were treated with inflammation inducing factor, TNFα, alone or in combination with 1-10 μM of Compound 1 for 4-24 h, and then were analyzed by immunofluorescence (IF) for the nuclear localization of inflammation-related CRM1 cargo proteins: IκB, Nrf2, HMGB1, FoxP3, FOXO1a, RxRα, PPARγ and NFκB (p65 subunit).
For the detection of IkB, Nrf2, RxRα and PPARγ localization, cells were pre-incubated with 10 μM Compound 1 for 30 minutes, followed by incubation with 20 ng/mL TNFα for 4 hrs in serum free media. For detection of HMGB1, FoxP3 and Foxo1A, cells were pre-incubated with 1 μM of Compound 1 for 2 h, followed by incubation with 20 ng/mL TNFα for 24 hours. […] IκB was detected by the primary rabbit monoclonal (E130) antibody from Abcam (ab32518); Nrf2 was detected by the primary rabbit polyclonal antibody from Santa Cruz (sc722); RxR alpha was detected by the primary rabbit polyclonal antibody from Santa Cruz (sc553); PPAR gamma was detected by the primary rabbit monoclonal […] antibody from Cell Signaling (#2443); Foxo1A was detected by the primary rabbit monoclonal [C29H4] antibody from Cell Signaling (#2880); HMGB1 was detected by the primary rabbit polyclonal antibody from Abcam (ab18256); FoxP3 was detected by the primary rabbit polyclonal antibody from Abeam (ab10563). […]

Entries after “also recorded” stand apart in the source; their conditions may differ.

Experimental findings from patent US9096543B2, “Nuclear transport modulators and uses thereof” (Karyopharm Therapeutics Inc., priority 2012, dated 2015) are described below.

Consider `O=C(/C=C\n1cnc(-c2cc(C(F)(F)F)cc(C(F)(F)F)c2)n1)NNC(=O)CN1CCOCC1` [Compound 2, (Z)-3-(3-(3,5-bis(trifluoromethyl)phenyl)-1H-1,2,4-triazol-1-yl)-N′-(2-morpholinoacetyl)acrylohydrazide], for which the anti-psoriatic activity entry in data set [1] was “statistically significant anti-psoriatic activity”. For the same compound, in data set [1] (10 μM daily, prominent Days 6-8, diminished Day 10 and beyond), the “PMA-induced increases in ear thickness and disease activity index (DAI)” value was “prominent reduction in PMA-induced increases in (i) left and right ear thickness, and (ii) left and right ear DAI”. Moreover, the “body weight, food and water intake” value in data set [2] was “without adversely affecting body weight, food and water intake”. The “IMQ-induced disease manifestation / disease activity index” value in data set [2] (daily Day 1 to Day 13) is “diminished IMQ-induced disease manifestation; also recorded: reduction in disease activity index in comparison to the vehicle treated group”.
As to `CC(C)(C)C(=O)NNC(=O)/C=C\n1cnc(-c2cc(C(F)(F)F)cc(C(F)(F)F)c2)n1` [Compound 1, (Z)-3-(3-(3,5-bis(trifluoromethyl)phenyl)-1H-1,2,4-triazol-1-yl)-N′-pivaloylacrylohydrazide], the EPHX1 expression entry in data set [3] (1 μM Compound 1, presence or absence of TNFα) was “up-regulated the expression of EPHX1 in the presence or absence of TNFα”. Further, the Nrf2 expression entry in data set [3] (1 μM Compound 1 alone, with or without KEAP1 knockdown) is on record as “did not have any significant effect on Nrf2 expression”. Moreover, the Nrf2 signaling result in data set [3] (1 μM Compound 1 for 24 hrs with 20 ng/mL TNFα) is given as “up-regulated Nrf2 signaling”. For the same compound, the “nuclear localization of inflammation-related CRM1 cargo proteins” value in data set [4] was “demonstrate nuclear localization of the above cargos”.
